From patent US6326471A, “Immunogenic peptides of prostate specific antigen” (priority 1998, dated 2001)

Tests used:
[1] = system: antibody to the alpha subunit of the acetylcholine receptor; settings: without added hydrophobic LI or AI residues; cited from earlier work
[2] = system: anti-whole PSA antibody; experiment: ELISA activity of PSA peptide segments with anti-whole PSA antibody; type: binding; settings: average of "wet" and "dry" ELISA methods; rank 1 = most reactive of 14 peptides
Text: The amino acid sequence of PSA was divided into fourteen peptide segments. Thirteen of the peptides were 19-mers to 21-mers and one peptide was a 16-mer. […] Two of the peptides lacked both the proline and the hydrophobic-hydrophilic-hydrophobic region descriptors. The combined presence of the two descriptors correlated extremely well with the immunodominance of PSA peptide segments. The six highest scoring PSA peptides in terms of ELISA activity with anti-whole PSA antibody had both characteristics as did the eighth best. Also, the presence of a central proline in a segment lacking the adjacent hydrophobic, hydrophilic, and hydrophobic region characteristic successfully predicted four of five subdominant (moderately ELISA reactive) epitopes, while the absence of both the proline and the hydrophobic-hydrophilic-hydrophobic region characteristics in a peptide segment correctly predicted the two least ELISA reactive peptide segments.

| Substance | antibody binding of the peptide alone [1] | ELISA activity rank [2] |
| --- | --- | --- |
| NPDVK | could not bind antibody alone |  |
| YSTCSGDSGGPLVCNGVLQG [PSA peptide 186-204] |  | 11 |
